In the oligonucleotide strings, read from the 5' end, every base follows the letter of its sugar. An asterisk marks phosphorothioate; unmarked linkages are phosphodiester. Other units and linkages are bracketed, terminal groups are in braces. A string of capitals states the bases alone. {NAG37} = tridentate N-acetyl-galactosamine targeting ligand, structure (NAG37)s; [invAb] = inverted abasic unit; m = 2'-O-methyl; f = 2'-fluoro
How the values were obtained:
[1] = test system: ANGPTL3 gene; experiment: Example 6: serum total cholesterol in mice; format: in vivo, C57bl/6 mice
Description: To assess the in vivo activity of additional ANGPTL3 RNAi agents that are designed to target position 304 on the ANGPTL3 gene, six- to eight-week-old female C57bl/6 mice were used. Pre-dose serum samples were taken at day −1 after a four hour fast. At day 1, each mouse was given a single subcutaneous administration of 200 μl containing 0.5 mg/kg (mpk) of an ANGPTL3 RNAi agent in D5W (dextrose in 5% water), or control (D5W) with no RNAi agent, according to the dosing groups recited in Table 25.
Each of the RNAi agents included a modified sequence and an N-acetyl-galactosamine-containing targeting ligand conjugated to the 5′ terminal end of the sense strand. (See Tables 3, 4, and 5 for modified sequences and targeting ligand structures). The injections were performed between the skin and muscle (i.e. subcutaneous injections) into the loose skin over the neck and shoulder area. Three (3) mice in each group were tested (n=3). Serum was collected on days 8, 15, 22, 30, and on day 43 for certain groups (i.e., Groups 1, 2, 5, and 10 only). Mice were fasted for four hours prior to each collection. ANGPTL3 protein levels in serum were measured by ELISA assay (R&D Systems), according to the manufacturer's recommendations. Triglycerides, total cholesterol, high-density lipoprotein (HDL), and low-density lipoprotein (LDL) in serum were measured on a Cobas® Integra 400 (Roche Diagnostics), according to the manufacturer's recommendations.
The ANGPTL3 protein levels, triglyceride levels, total cholesterol levels, HDL levels, and LDL levels for each animal were normalized. For normalization, the level of ANGPTL3 protein, triglyceride, HDL, and total cholesterol, respectively, for each animal at a time point, was divided by the pre-treatment level of expression in that animal (in this case at day −1) to determine the ratio of expression “normalized to pre-treatment.” Expression at a specific time point was then normalized to the D5W control group by dividing the “normalized to pre-treatment” ratio for an individual animal by the mean “normalized to pretreatment” ratio of all mice in the D5W control group.

[2] = test system: ANGPTL3 gene; experiment: Example 14: RNAi agent and statin, serum LDL in LDLR knockout mice; format: in vivo, LDLR KO mice
Description: To evaluate the effect of co-administration of RNAi agents and statins in a disease model, LDLR KO mice were commercially obtained (The Jackson Laboratory). For three weeks prior to the onset of the study, forty-one (41) male 7 to 8 week old LDLR KO mice were placed on a high fat (“western”) diet (Teklad Custom Diets TD.88137), and remained on that diet throughout the duration of the study. Pre-dose serum samples were taken on study Day 1 after a four hour fast. The dosing regimen for the study is recited in the following Table 72:
• Mice were treated at 40 mg/kg for the first 11 days, then switched to 20 mg/kg thereafter.
The vehicle used for the oral gavage in the study was a 1:1 mixture of Ora-Plus®: Ora-Sweet® solution, which were acquired commercially. For the preparation of the atorvastatin oral gavage administrations, the respective desired dose of atorvastatin was first dissolved in sterile water (0.3 mL water per 1 mL of desired formulation) and vortexed until smooth, followed by the addition of a mixture of 1:1 Ora-Plus®: Ora-Sweet® solution (0.7 mL vehicle per 1 mL of desired formulation) and vortexed. On day 1 and for each day thereafter an oral gavage dose was administered for each of the Groups except for Group 2. On Day 23, Groups 1, 2, 3, and 4 received a single subcutaneous administration of 2.5 mg/kg dose ([…] solution) of an ANGPTL3 RNAi agent in D5W (dextrose in 5% water), or vehicle control (D5W) with no RNAi agent.
The RNAi agent tested (AD05488) included a modified sequence and an N-acetyl-galactosamine-containing targeting ligand conjugated to the 5′ terminal end of the sense strand. (See Tables 3, 4, and 5 for modified sequences and targeting ligand structures). The injections were performed between the skin and muscle (i.e. subcutaneous injections) into the loose skin over the neck and shoulder area. Serum was collected on days 8, 15, 22 (pre-RNAi agent injection), 29, 36, 43, and 50. LDLR KO mice were fasted for four hours prior to each collection.
ANGPTL3 protein levels in serum were measured by ELISA assay (R&D Systems), according to the manufacturer's recommendations. Among other biomarkers, triglycerides, total cholesterol, and low-density lipoprotein (LDL) in serum were measured on a Cobas® Integra 400 (Roche Diagnostics), according to the manufacturer's recommendations.
The ANGPTL3 protein levels, triglyceride levels, total cholesterol levels, HDL levels, and LDL levels for each animal were normalized. For normalization, respective levels of ANGPTL3 protein, TG, total cholesterol, or LDL for each animal at a time point was divided by the pre-treatment level of expression in that animal (in this case pre-dose levels on Day 1) to determine the ratio of expression “normalized to pre-treatment.” Data from the study set forth in this Example are shown in the following Tables 73-76: […]

## AD05488: RNAi agent duplex: antisense AM07235-AS, sense AM07234-SS (antisense mU*fA*mC*fUmGfAmUfCmAfAmAfUmAfUmGfUmUfGmAfG*mC; sense {NAG37}*[invAb]*mGmCmUmCmAmAmCmAfUfAfUmUmUmGmAmUmCmAmGmUmA*[invAb])
[1]; Day 8, 0.5 mg/kg single SC injection on day 1, n=3
  Avg Chol (total cholesterol), normalized to pre-treatment and control: 0.782
[1]; Day 15, 0.5 mg/kg single SC injection on day 1, n=3
  Avg Chol (total cholesterol), normalized to pre-treatment and control: 0.768
[1]; Day 22, 0.5 mg/kg single SC injection on day 1, n=3
  Avg Chol (total cholesterol), normalized to pre-treatment and control: 0.801
[1]; Day 30, 0.5 mg/kg single SC injection on day 1, n=3
  Avg Chol (total cholesterol), normalized to pre-treatment and control: 0.961
[1]; Day 43, 0.5 mg/kg single SC injection on day 1, n=3
  Avg Chol (total cholesterol), normalized to pre-treatment and control: 1.037
[2]; Group 2: no gavage, 2.5 mg/kg AD05488 SC on day 23, Day 8 (pre-RNAi agent injection)
  Avg LDL normalized to pre-treatment: 0.893
[2]; Group 2: no gavage, 2.5 mg/kg AD05488 SC on day 23, Day 15 (pre-RNAi agent injection)
  Avg LDL normalized to pre-treatment: 1.051
[2]; Group 2: no gavage, 2.5 mg/kg AD05488 SC on day 23, Day 22 (pre-RNAi agent injection)
  Avg LDL normalized to pre-treatment: 1.113
[2]; Group 2: no gavage, 2.5 mg/kg AD05488 SC on day 23, Day 29
  Avg LDL normalized to pre-treatment: 0.653
[2]; Group 2: no gavage, 2.5 mg/kg AD05488 SC on day 23, Day 36
  Avg LDL normalized to pre-treatment: 0.492
[2]; Group 2: no gavage, 2.5 mg/kg AD05488 SC on day 23, Day 43
  Avg LDL normalized to pre-treatment: 0.443
[2]; Group 2: no gavage, 2.5 mg/kg AD05488 SC on day 23, Day 50
  Avg LDL normalized to pre-treatment: 0.480
[2]; Group 3: 10 mg/kg daily oral gavage atorvastatin, 2.5 mg/kg AD05488 on day 23, Day 8 (pre-RNAi agent injection)
  Avg LDL normalized to pre-treatment: 0.692
[2]; Group 3: 10 mg/kg daily oral gavage atorvastatin, 2.5 mg/kg AD05488 on day 23, Day 15 (pre-RNAi agent injection)
  Avg LDL normalized to pre-treatment: 0.537
[2]; Group 3: 10 mg/kg daily oral gavage atorvastatin, 2.5 mg/kg AD05488 on day 23, Day 22 (pre-RNAi agent injection)
  Avg LDL normalized to pre-treatment: 0.659
[2]; Group 3: 10 mg/kg daily oral gavage atorvastatin, 2.5 mg/kg AD05488 on day 23, Day 29
  Avg LDL normalized to pre-treatment: 0.422
[2]; Group 3: 10 mg/kg daily oral gavage atorvastatin, 2.5 mg/kg AD05488 on day 23, Day 36
  Avg LDL normalized to pre-treatment: 0.312
[2]; Group 3: 10 mg/kg daily oral gavage atorvastatin, 2.5 mg/kg AD05488 on day 23, Day 43
  Avg LDL normalized to pre-treatment: 0.264
[2]; Group 3: 10 mg/kg daily oral gavage atorvastatin, 2.5 mg/kg AD05488 on day 23, Day 50
  Avg LDL normalized to pre-treatment: 0.256
[2]; Group 4: 20 mg/kg* daily oral gavage atorvastatin (40 mg/kg first 11 days), 2.5 mg/kg AD05488 on day 23, Day 8 (pre-RNAi agent injection)
  Avg LDL normalized to pre-treatment: 0.572
[2]; Group 4: 20 mg/kg* daily oral gavage atorvastatin (40 mg/kg first 11 days), 2.5 mg/kg AD05488 on day 23, Day 15 (pre-RNAi agent injection)
  Avg LDL normalized to pre-treatment: 0.515
[2]; Group 4: 20 mg/kg* daily oral gavage atorvastatin (40 mg/kg first 11 days), 2.5 mg/kg AD05488 on day 23, Day 22 (pre-RNAi agent injection)
  Avg LDL normalized to pre-treatment: 0.755
[2]; Group 4: 20 mg/kg* daily oral gavage atorvastatin (40 mg/kg first 11 days), 2.5 mg/kg AD05488 on day 23, Day 29
  Avg LDL normalized to pre-treatment: 0.434
[2]; Group 4: 20 mg/kg* daily oral gavage atorvastatin (40 mg/kg first 11 days), 2.5 mg/kg AD05488 on day 23, Day 36
  Avg LDL normalized to pre-treatment: 0.240
[2]; Group 4: 20 mg/kg* daily oral gavage atorvastatin (40 mg/kg first 11 days), 2.5 mg/kg AD05488 on day 23, Day 43
  Avg LDL normalized to pre-treatment: 0.217
[2]; Group 4: 20 mg/kg* daily oral gavage atorvastatin (40 mg/kg first 11 days), 2.5 mg/kg AD05488 on day 23, Day 50
  Avg LDL normalized to pre-treatment: 0.242
[2]; co-administration of atorvastatin and RNAi agent (Groups 3 and 4), LDLR KO mice on high fat diet
  total reductions in LDL: ~ 80%

Source: patent US12729377B2, “RNAi agents and compositions for inhibiting expression of angiopoietin-like 3 (ANGPTL3), and methods of use” (Arrowhead Pharmaceuticals, Inc., priority 2017, dated 2026)
